The nature of data set [1]: In vitro stability in fetal bovine serum. In kind it is in vitro ADME. The conditions noted are these: 37°C, 0 h.
The test system of data set [2] is INS-1 insulinoma xenograft. Description: In vivo distribution of radioactivity across organs in nude mouse insulinoma model. More on the design: species or system BALB/c nude mice. The conditions noted are these: 90 min after injection of approx. 100 µCi, from %ID/g, mean ± SD, N = 3. On the procedure:
(§1) A total of 24 nude mice were each subcutaneously injected in the armpit of the right upper limb with 100 µl of a suspension of INS-1 cells (containing approximately 10^7 cells per 100 µl). The nude mice were reared under conventional sterile conditions and given 5% dextrose injections as drinking water (Shanghai Changzheng Fumin Jinshan Pharmaceutical, Shanghai, China). Their blood glucose levels were monitored every 2–3 days with a glucometer (Accu-Chek Integra integrated blood glucose meter, Roche, Berlin, Germany), and all measured blood glucose levels were at least 3 mmol/L.
Six nude mice each received a 100 µl injection containing approximately 100 µCi of ^125I-liraglutide. At 90 min and 360 min after this injection, 3 mice were sacrificed by cervical dislocation. First, blood was collected from the heart; next, isolated various organs and tissues, including the heart, lungs, liver, stomach, kidneys, spleen, small intestine, and pancreas, as well as muscle tissue and the tumour; the isolated samples were then placed into tubes that were impervious to γ radiation and weighed. For each tube, the radioactivity in counts per minute was then measured by a γ counter. The results were presented in terms of %ID/g (the percentage of the total injected dose of radioactivity per gram of tissue). Histograms of %ID/g for various organs at the 90 min and 360 min time points were plotted.

For data set [3], the system named is INS-1 insulinoma xenograft. In words: In vivo blocking experiment with unlabelled liraglutide (biodistribution). More on the design: species or system BALB/c nude mice. The conditions noted are these: 100 µg unlabelled liraglutide i.v. 30 min before approx. 100 µCi tracer, 90 min, p<0.05, N = 3. On the procedure:
as §1
In this experiment, 100 µl of liraglutide solution containing 100 µg of unlabelled liraglutide, was injected into the tail veins of each of 3 nude mice with insulinoma. Half an hour later, 100 µl of ^125I-liraglutide solution containing approximately 100 µCi of ^125I-liraglutide was injected into the tail vein of each mouse. To create an unblocked experimental group that corresponded with this blocked group, 100 µl of ^125I-liraglutide solution containing approximately 100 µCi of ^125I-liraglutide was injected into the tail veins of each of 3 more nude mice with insulinoma. These six nude mice with insulinoma were sacrificed by cervical dislocation at 90 min after the ^125I-liraglutide injection. First, blood was collected from the heart and various organs and tissues were isolated; the isolated samples were then placed into tubes that were impervious to γ radiation and weighed. For each tube, the radioactivity in counts per minute was then measured by a γ counter. The results were presented in terms of %ID/g. A histogram of %ID/g for various organs at the 90 min time point in the blocked and unblocked groups was plotted.

For data set [4] the following is noted: cited from earlier work.
A further data set has as its target GLP-1 receptors. On the set-up: method as in PMID 23652208. Conditions: Rin-m5f insulinoma cells, earlier exendin-4 imaging study of the authors; cited from earlier work.
For data set [5] the following is noted: in vivo; cited from earlier work. From the text:
This approach can be utilised for qualitative diagnoses, accurate staging, and evaluation of treatment efficacy. However, the detection rate of SSTR imaging for insulinoma is not high. […] This limited utility is because in tumours, among the five subtypes of SSTRs (SSTR1-SSTR5), radionucli ...

`CCCCCCCCCCCCCCCC(=O)N[C@@H](CCC(=O)NCCCC[C@H](NC(=O)[C@H](C)NC(=O)[C@H](C)NC(=O)[C@H](CCC(N)=O)NC(=O)CNC(=O)[C@H](CCC(=O)O)NC(=O)[C@H](CC(C)C)NC(=O)[C@H](Cc1ccc(O)c(I)c1)NC(=O)[C@H](CO)NC(=O)[C@H](CO)NC(=O)[C@@H](NC(=O)[C@H](CC(=O)O)NC(=O)[C@H](CO)NC(=O)[C@@H](NC(=O)[C@H](Cc1ccccc1)NC(=O)[C@@H](NC(=O)CNC(=O)[C@H](CCC(=O)O)NC(=O)[C@H](C)NC(=O)[C@@H](N)Cc1c[nH]cn1)[C@@H](C)O)[C@@H](C)O)C(C)C)C(=O)N[C@@H](CCC(=O)O)C(=O)N[C@@H](Cc1ccccc1)C(=O)N[C@H](C(=O)N[C@@H](C)C(=O)N[C@@H](Cc1c[nH]c2ccccc12)C(=O)N[C@@H](CC(C)C)C(=O)N[C@H](C(=O)N[C@@H](CCCNC(=N)N)C(=O)NCC(=O)N[C@@H](CCCNC(=N)N)C(=O)NCC(=O)O)C(C)C)[C@@H](C)CC)C(=O)O` [125I-liraglutide]: the “intact peptide in fetal bovine serum” value in data set [1] is recorded as 92.9%. In addition, in data set [2], the “T/NT ratio, tumour to muscle tissue” value came out at 4.83±1.30 and the “T/NT ratio, tumour to pancreatic tissue” value was determined as 2.73±0.80. In data set [3], the “radioactivity (%ID/g) of the lungs after blocking” value is on record as “significantly decreased”, the “radioactivity (%ID/g) of the pancreas after blocking” value is recorded as “significantly decreased” and the “radioactivity (%ID/g) of the tumour after blocking” value is recorded as “significantly reduced”.
Take `CCCCCCCCCCCCCCCC(=O)N[C@@H](CCC(=O)NCCCC[C@H](NC(=O)[C@H](C)NC(=O)[C@H](C)NC(=O)[C@H](CCC(N)=O)NC(=O)CNC(=O)[C@H](CCC(=O)O)NC(=O)[C@H](CC(C)C)NC(=O)[C@H](Cc1ccc(O)cc1)NC(=O)[C@H](CO)NC(=O)[C@H](CO)NC(=O)[C@@H](NC(=O)[C@H](CC(=O)O)NC(=O)[C@H](CO)NC(=O)[C@@H](NC(=O)[C@H](Cc1ccccc1)NC(=O)[C@@H](NC(=O)CNC(=O)[C@H](CCC(=O)O)NC(=O)[C@H](C)NC(=O)[C@@H](N)Cc1cnc[nH]1)[C@@H](C)O)[C@@H](C)O)C(C)C)C(=O)N[C@@H](CCC(=O)O)C(=O)N[C@@H](Cc1ccccc1)C(=O)N[C@H](C(=O)N[C@@H](C)C(=O)N[C@@H](Cc1c[nH]c2ccccc12)C(=O)N[C@@H](CC(C)C)C(=O)N[C@H](C(=O)N[C@@H](CCCNC(=N)N)C(=O)NCC(=O)N[C@@H](CCCNC(=N)N)C(=O)NCC(=O)O)C(C)C)[C@@H](C)CC)C(=O)O` [liraglutide]: the in vivo half-life entry in data set [4] is reported as “up to 13 h”.
In general, IC50 refers to the concentration that gives 50% inhibition. As usually defined, the Kd is the concentration at which binding is half-saturated. Consider Exendin-4, for which, at GLP-1 receptors, the IC50 is 0.35 to 2.81 nM and the Kd was 56.6 nM.
For the compound Glucagon-like peptide-1 [GLP-1], the serum half-life entry in data set [5] is given as “less than 2 min”.

The values are drawn from paper PMC4013070, “The Imaging of Insulinomas Using a Radionuclide-Labelled Molecule of the GLP-1 Analogue Liraglutide: A New Application of Liraglutide” (PLoS ONE, 2014).
